Assay results as given in patent US20200187499A1, “SUBSTITUTED BENZYL-4-AMINOPICOLINIC ESTERS AND PYRIMIDINO-4-CARBOXYLIC ESTERS, METHODS FOR THE PRODUCTION THEREOF, AND USE THEREOF AS HERBICIDES AND PLANT GROWTH REGULATORS” (Bayer CropScience Aktiengesellschaft, priority 2017, published 2020).

Legend:
Type in all cases: in vivo
[1] = system: ABUTH; assay: Pre-emergence herbicidal action; conditions: Table 3, pre-emergence (PE), 320 g/ha, scored after 3 weeks
Text: (§1) Seeds of monocotyledonous and dicotyledonous weed plants and crop plants are laid out in sandy loam soil in wood-fiber pots and covered with soil. The compounds of the invention, formulated in the form of wettable powders (WP) or as emulsion concentrates (EC), are then applied to the surface of the covering soil in the form of an aqueous suspension or emulsion at a water application rate equating to 600 to 800 I/ha, with addition of 0.2% wetting agent. After the treatment, the pots are placed in a greenhouse and kept under good growth conditions for the trial plants. The damage to the test plants is scored visually after a test period of 3 weeks by comparison with untreated controls (herbicidal activity in percent (%): 100% activity=the plants have died, 0% activity=like control plants).
(§2) At the same time, inventive compounds leave Gramineae crops such as barley, wheat, rye, millet/sorghum, corn or rice virtually undamaged when applied pre-emergence, even at high active ingredient dosages. In addition, some substances are also harmless to dicotyledonous crops such as soya, cotton, oilseed rape, sugar beet or potatoes. […] The tables below illustrate, in an exemplary manner, the pre-emergence herbicidal action of the compounds according to the invention, the herbicidal activity being stated in percent.

[2] = system: ALOMY; assay: Pre-emergence herbicidal action; conditions: Table 3, pre-emergence (PE), 320 g/ha, scored after 3 weeks
Text: as §1, §2

[3] = system: AMARE; assay: Pre-emergence herbicidal action; conditions: 320 g/ha, scored after 3 weeks
Text: as §1, §2

[4] = system: ECHCG; assay: Pre-emergence herbicidal action; conditions: 320 g/ha, scored after 3 weeks
Text: as §1, §2

[5] = system: SETVI; assay: Pre-emergence herbicidal action; conditions: Table 3, pre-emergence (PE), 320 g/ha, scored after 3 weeks
Text: as §1, §2

[6] = system: ABUTH; assay: Post-emergence herbicidal action; conditions: 320 g/ha, assessed after about 3 weeks
Experimental: (§3) Seeds of monocotyledonous and dicotyledonous weed and crop plants are laid out in sandy loam soil in wood-fiber pots, covered with soil and cultivated in a greenhouse under good growth conditions. 2 to 3 weeks after sowing, the test plants are treated at the one-leaf stage. The compounds of the invention, formulated in the form of wettable powders (WP) or as emulsion concentrates (EC), are then sprayed onto the green parts of the plants in the form of an aqueous suspension or emulsion at a water application rate equating to 600 to 800 l/ha, with addition of 0.2% wetting agent. After the test plants have been left to stand in the greenhouse under optimal growth conditions for about 3 weeks, the action of the preparations is assessed visually in comparison to untreated controls (herbicidal action in percent (%): 100% activity=the plants have died, 0% activity=like control plants). […] At the same time, inventive compounds leave Gramineae crops such as barley, wheat, rye, millet/sorghum, corn or rice virtually undamaged when applied post-emergence, even at high active ingredient dosages. In addition, some substances are also harmless to dicotyledonous crops such as soya, cotton, oilseed rape, sugar beet or potatoes. Some of the compounds according to the invention have high selectivity and are therefore suitable for controlling unwanted vegetation in agricultural crops by the post-emergence method. The tables below illustrate, in an exemplary manner, the post-emergence herbicidal action of the compounds according to the invention, the herbicidal activity being stated in percent.

[7] = system: AMARE; assay: Post-emergence herbicidal action; conditions: 320 g/ha, assessed after about 3 weeks
Experimental: as §3

[8] = system: SETVI; assay: Post-emergence herbicidal action; conditions: 320 g/ha, assessed after about 3 weeks
Experimental: as §3

[9] = system: STEME; assay: Post-emergence herbicidal action; conditions: 320 g/ha, assessed after about 3 weeks
Experimental: as §3

[10] = system: ECHCG; assay: Post-emergence herbicidal action; conditions: 320 g/ha, assessed after about 3 weeks
Experimental: as §3

[11] = system: PHBPU; assay: Post-emergence herbicidal action; conditions: Table 5, post-emergence (PO), 320 g/ha, assessed after about 3 weeks
Experimental: as §3

[12] = system: POLCO; assay: Post-emergence herbicidal action; conditions: Table 5, post-emergence (PO), 320 g/ha, assessed after about 3 weeks
Experimental: as §3

[13] = system: VIOTR; assay: Post-emergence herbicidal action; conditions: Table 5, post-emergence (PO), 320 g/ha, assessed after about 3 weeks
Experimental: as §3

Row | SMILES | Herbicidal action against ABUTH [1] | Herbicidal action against ALOMY [2] | Herbicidal action against AMARE ([3]; Table 3, pre-emergence (PE)) | Herbicidal action against ECHCG ([4]; Table 3, pre-emergence (PE)) | Herbicidal action against SETVI [5] | Herbicidal action against ABUTH ([6]; Table 6, post-emergence (PO)) | Herbicidal action against AMARE ([7]; Table 6, post-emergence (PO)) | Herbicidal action against SETVI ([8]; Table 6, post-emergence (PO)) | Herbicidal action against STEME ([9]; Table 6, post-emergence (PO)) | Herbicidal action against AMARE ([3]; Table 4, pre-emergence (PE)) | Herbicidal action against ECHCG ([4]; Table 4, pre-emergence (PE)) | Herbicidal action against ABUTH ([6]; Table 5, post-emergence (PO)) | Herbicidal action against AMARE ([7]; Table 5, post-emergence (PO)) | Herbicidal action against ECHCG ([10]; Table 5, post-emergence (PO)) | Herbicidal action against PHBPU [11] | Herbicidal action against POLCO [12] | Herbicidal action against SETVI ([8]; Table 5, post-emergence (PO)) | Herbicidal action against STEME ([9]; Table 5, post-emergence (PO)) | Herbicidal action against VIOTR [13] | also measured
1 | Nc1cc(-c2ccc3occc3c2)nc(C(=O)OCc2cccc(C(F)(F)F)c2)c1Cl [Example I-11] | 20% | 80% | 100% | 80% | 100% | 100% | 100% | 90% | 100% | – | – | – | – | – | – | – | – | – | – | –
2 | Nc1c(F)c(-c2ccc3occc3c2)nc(C(=O)OCc2ccc(Cl)cc2)c1Cl [Example I-47] | 20% | 60% | 100% | 70% | 50% | 90% | 90% | 70% | 80% | – | – | – | – | – | – | – | – | – | – | –
3 | COc1ccc(COC(=O)c2nc(-c3ccc4ccoc4c3)c(F)c(N)c2Cl)c(OC)c1 [Example I-35] | – | – | – | – | – | – | – | – | – | 100% | 40% | 80% | 100% | 90% | 20% | 80% | 100% | 90% | 60% | –
4 | Nc1c(F)c(-c2ccc3ccsc3c2)nc(C(=O)OCc2ccc(F)cc2)c1Cl [Example I-53] | – | – | – | – | – | – | – | – | – | 100% | 70% | 80% | 100% | 90% | 0% | 80% | 90% | 100% | 10% | –
5 | Nc1cc(-c2ccc3ncsc3c2)nc(C(=O)OCc2cccc(F)c2)c1Cl [Example I-41] | – | – | – | – | – | – | – | – | – | 50% | 90% | 100% | 90% | 100% | 70% | 0% | 100% | 100% | 90% | –
6 | Nc1cc(-c2ccc3ccoc3c2)nc(C(=O)OCc2ccc(F)cc2F)c1Cl [Example I-43] | – | – | – | – | – | – | – | – | – | 100% | 0% | – | – | – | – | – | – | – | – | Herbicidal action against ABUTH ([6]; Table 7, post-emergence (PO)): 90%; Herbicidal action against ABUTH ([6]; Table 8, post-emergence (PO)): 90%; Herbicidal action against AMARE ([7]; Table 7, post-emergence (PO)): 100%; Herbicidal action against AMARE ([7]; Table 8, post-emergence (PO)): 100%; Herbicidal action against ECHCG ([10]; Table 7, post-emergence (PO)): 80%; Herbicidal action against ECHCG ([10]; Table 8, post-emergence (PO)): 80%; Herbicidal action against SETVI ([8]; Table 7, post-emergence (PO)): 90%; Herbicidal action against SETVI ([8]; Table 8, post-emergence (PO)): 90%
7 | Nc1cc(-c2ccc3occc3c2)nc(C(=O)OCc2ccc(Cl)cc2)c1Cl [Example I-31] | 30% | 20% | 90% | 30% | 50% | 100% | 100% | 90% | 100% | – | – | – | – | – | – | – | – | – | – | –
8 | Nc1c(F)c(-c2ccc3ccsc3c2)nc(C(=O)OCc2ccc(F)cc2F)c1Cl [Example I-42] | 0% | 30% | 100% | 40% | 20% | 80% | 90% | 20% | 80% | – | – | – | – | – | – | – | – | – | – | –
